Experimental data as given in ChEMBL document CHEMBL5214951, “Isatoic anhydrides as novel inhibitors of monoamine oxidase” (Bioorg Med Chem, 2022).

Key:
[1] = molecular target: D-amino-acid oxidase (Sus scrofa, UniProt P00371); test: Inhibition of porcine kidney DAAO using D-serine as substrate by Amplex red and horseradish peroxidase fluorescence assay
[2] = molecular target: Acetylcholinesterase (Homo sapiens, UniProt P22303); test: Inhibition of human recombinant AChE using S-acetylthiocholine as substrate by DTNB reagent based spectrophotometric analysis
Chain of Acetylcholinesterase (P22303 whole entry): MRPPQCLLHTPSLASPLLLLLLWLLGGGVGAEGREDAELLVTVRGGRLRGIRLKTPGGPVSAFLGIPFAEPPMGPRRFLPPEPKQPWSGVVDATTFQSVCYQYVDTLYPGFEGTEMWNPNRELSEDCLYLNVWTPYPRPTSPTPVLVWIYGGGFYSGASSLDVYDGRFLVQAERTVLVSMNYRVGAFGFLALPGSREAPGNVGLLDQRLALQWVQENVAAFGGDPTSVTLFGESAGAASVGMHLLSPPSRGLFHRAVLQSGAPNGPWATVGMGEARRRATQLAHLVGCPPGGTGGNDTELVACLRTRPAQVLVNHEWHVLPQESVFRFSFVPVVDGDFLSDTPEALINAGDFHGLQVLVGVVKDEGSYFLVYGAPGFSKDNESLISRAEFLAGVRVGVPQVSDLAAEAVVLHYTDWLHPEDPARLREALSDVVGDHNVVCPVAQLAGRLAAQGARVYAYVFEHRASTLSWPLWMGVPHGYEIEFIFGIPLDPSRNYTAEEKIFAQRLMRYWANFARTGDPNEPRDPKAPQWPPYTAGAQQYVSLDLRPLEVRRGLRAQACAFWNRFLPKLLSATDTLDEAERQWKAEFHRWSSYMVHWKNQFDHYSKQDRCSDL

[3] = molecular target: Cholinesterase (Equus caballus, UniProt P81908)
Chain of Cholinesterase (P81908 whole entry): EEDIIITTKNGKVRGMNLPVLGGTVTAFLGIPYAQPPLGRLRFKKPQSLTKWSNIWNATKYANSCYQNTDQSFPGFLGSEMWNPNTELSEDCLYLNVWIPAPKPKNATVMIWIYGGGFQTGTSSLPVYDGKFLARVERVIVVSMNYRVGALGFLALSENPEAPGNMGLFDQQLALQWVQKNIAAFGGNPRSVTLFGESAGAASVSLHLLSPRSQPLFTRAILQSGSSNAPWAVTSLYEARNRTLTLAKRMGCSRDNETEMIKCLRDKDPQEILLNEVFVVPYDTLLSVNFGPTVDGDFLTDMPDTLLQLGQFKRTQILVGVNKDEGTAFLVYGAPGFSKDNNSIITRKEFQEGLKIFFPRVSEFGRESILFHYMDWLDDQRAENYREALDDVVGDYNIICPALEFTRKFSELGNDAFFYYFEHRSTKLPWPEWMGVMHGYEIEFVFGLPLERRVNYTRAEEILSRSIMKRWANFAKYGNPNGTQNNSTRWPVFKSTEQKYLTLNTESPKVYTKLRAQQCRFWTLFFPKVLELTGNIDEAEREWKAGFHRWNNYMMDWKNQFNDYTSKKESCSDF
Description: Inhibition of equine serum BuChE using S-butyrylthiocholine as substrate at by DTNB reagent based spectrophotometric analysis

[4] = molecular target: T1, Amine oxidase [flavin-containing] A (Homo sapiens, UniProt P21397)
T1 sequence (P21397 whole entry): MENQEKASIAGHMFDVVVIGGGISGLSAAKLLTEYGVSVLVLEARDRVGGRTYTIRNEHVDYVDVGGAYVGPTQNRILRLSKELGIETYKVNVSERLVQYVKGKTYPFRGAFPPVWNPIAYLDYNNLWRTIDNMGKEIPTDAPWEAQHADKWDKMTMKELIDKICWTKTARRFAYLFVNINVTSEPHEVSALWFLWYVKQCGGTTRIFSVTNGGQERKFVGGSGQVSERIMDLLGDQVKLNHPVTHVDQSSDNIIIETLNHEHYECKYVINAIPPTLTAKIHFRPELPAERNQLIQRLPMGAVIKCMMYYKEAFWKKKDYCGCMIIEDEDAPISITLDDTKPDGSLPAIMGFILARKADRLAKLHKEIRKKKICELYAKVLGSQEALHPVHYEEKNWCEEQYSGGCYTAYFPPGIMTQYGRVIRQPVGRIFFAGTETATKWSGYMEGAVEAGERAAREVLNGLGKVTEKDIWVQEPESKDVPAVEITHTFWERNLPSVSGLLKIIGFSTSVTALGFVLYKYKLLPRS

[5] = molecular target: T2, Amine oxidase [flavin-containing] B (Homo sapiens, UniProt P27338)
T2 sequence (P27338 whole entry): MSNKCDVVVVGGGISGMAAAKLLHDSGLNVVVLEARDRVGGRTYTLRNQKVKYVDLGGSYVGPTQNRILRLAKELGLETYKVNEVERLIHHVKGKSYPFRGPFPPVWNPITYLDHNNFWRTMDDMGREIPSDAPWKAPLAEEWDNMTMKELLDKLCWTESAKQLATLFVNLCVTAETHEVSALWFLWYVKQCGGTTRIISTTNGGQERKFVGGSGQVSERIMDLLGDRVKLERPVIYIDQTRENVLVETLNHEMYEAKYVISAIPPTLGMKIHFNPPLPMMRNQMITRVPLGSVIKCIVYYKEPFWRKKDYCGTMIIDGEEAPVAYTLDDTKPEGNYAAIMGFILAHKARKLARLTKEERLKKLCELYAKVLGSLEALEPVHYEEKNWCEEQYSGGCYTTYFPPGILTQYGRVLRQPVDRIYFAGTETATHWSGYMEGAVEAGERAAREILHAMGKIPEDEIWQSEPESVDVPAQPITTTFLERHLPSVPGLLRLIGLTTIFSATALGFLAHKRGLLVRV

[6] = molecular target: T1, Amine oxidase [flavin-containing] A; test: Competitive inhibition of human recombinant MAO-A assessed as inhibitory constant using varying levels of kynuramine as substrate by Lineweaver-burk plot analysis
[7] = molecular target: T2, Amine oxidase [flavin-containing] B; test: Competitive inhibition of human recombinant MAO-B assessed as inhibitory constant using varying levels of kynuramine as substrate by Lineweaver-burk plot analysis

Chain of D-amino-acid oxidase (P00371 whole entry): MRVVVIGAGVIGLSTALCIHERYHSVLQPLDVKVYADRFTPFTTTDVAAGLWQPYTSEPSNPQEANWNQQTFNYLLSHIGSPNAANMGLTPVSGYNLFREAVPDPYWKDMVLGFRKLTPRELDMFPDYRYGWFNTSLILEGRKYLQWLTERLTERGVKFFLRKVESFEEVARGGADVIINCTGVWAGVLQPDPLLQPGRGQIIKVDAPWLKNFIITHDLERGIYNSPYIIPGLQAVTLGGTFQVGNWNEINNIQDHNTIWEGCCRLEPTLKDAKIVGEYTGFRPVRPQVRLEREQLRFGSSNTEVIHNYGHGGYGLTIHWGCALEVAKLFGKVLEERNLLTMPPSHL

Structure (SMILES)	IC50 [1] [µM]	Ki [6] [µM]	Ki [7] [µM]	IC50 [2] [µM]	IC50 [3] [µM]	IC50 [4] [µM]	IC50 [5] [µM]
CC(C)c1ccc(COc2ccc3[nH]c(=O)oc(=O)c3c2)cc1				55	21.1	0.01	0.076
O=c1[nH]c2ccc(OCc3cccc(I)c3)cc2c(=O)o1						0.043	0.014
Cc1ccc(COc2ccc3[nH]c(=O)oc(=O)c3c2)cc1					19.1	0.061	0.0064
O=c1[nH]c2ccc(OCc3ccc(F)cc3)cc2c(=O)o1				76.2		0.122	0.015
COc1cccc(COc2ccc3[nH]c(=O)oc(=O)c3c2)c1						0.094	0.018
O=c1[nH]c2ccc(OCc3cccc(C(F)(F)F)c3)cc2c(=O)o1						0.083	0.0047
O=c1[nH]c2ccc(OCc3cccc(Br)c3)cc2c(=O)o1						0.059	0.011
O=c1[nH]c2ccc(OCc3ccc4ccccc4c3)cc2c(=O)o1					16.6	0.065	0.02
O=c1[nH]c2ccc(OCc3ccc(Br)cc3)cc2c(=O)o1					19.8	0.0095	0.0069

Further lines, with some results ahead:

IC50 [1] [µM]	Ki [6] [µM]	Ki [7] [µM]	Structure (SMILES)	IC50 [2] [µM]	IC50 [3] [µM]	IC50 [4] [µM]	IC50 [5] [µM]
0.933			Cc1cc(C(=O)O)n[nH]1				
1.07			COc1cc(/C=C/C(=O)CC(=O)/C=C/c2ccc(O)c(OC)c2)ccc1O [CURCUMIN]				
	0.052	0.0043	O=c1[nH]c2ccc(OCc3ccccc3)cc2c(=O)o1			0.132	0.073
